Test results as given in patent US11613533B2, “Compounds useful for inhibiting RET kinase” (Eli Lilly and Company, priority 2020, dated 2023).
Substitutions are numbered along the chain they refer to.

What was measured:
[1] = target: T1, KIF5B-RET mutant form G810S in HEK293 cells (Homo sapiens, UniProt P07949, G810S); test: RET cell assay (In-Cell Western, phospho-RET Y1062), G810S; format: cell-based; details: HEK293, doxycycline-induced KIF5B-RET G810S, 1 hr compound treatment; read-out: EC50, inhibition of intracellular autophosphorylation of RET at tyrosine 1062, G810S cells
T1 construct: expressed in transfected cells; host or cells: HEK293; the other entry of the earlier key: KIF5B (P33176, Kinesin-1 heavy chain)
T1 sequence (P07949 713-1063 G810S limits assumed): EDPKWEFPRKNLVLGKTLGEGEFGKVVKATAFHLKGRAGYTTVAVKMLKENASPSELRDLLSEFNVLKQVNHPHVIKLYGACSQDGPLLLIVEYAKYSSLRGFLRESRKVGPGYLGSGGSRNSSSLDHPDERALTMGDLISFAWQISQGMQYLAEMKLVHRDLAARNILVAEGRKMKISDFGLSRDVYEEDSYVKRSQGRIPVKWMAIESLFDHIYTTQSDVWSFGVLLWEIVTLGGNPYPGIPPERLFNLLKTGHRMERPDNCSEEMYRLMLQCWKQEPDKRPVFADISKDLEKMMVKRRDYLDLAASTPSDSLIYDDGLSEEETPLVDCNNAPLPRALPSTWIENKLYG
Procedure: (§1) Compounds of formulas (I), (II), and (III) are screened for their ability to inhibit the intracellular autophosphorylation of RET at tyrosine 1062 as detected by In-Cell Western. HEK293 cells containing a doxycycline-inducible plasmid for inducible expression of KIF5B-RET WT and RET mutant forms V804M and G810S are seeded at 25,000 cells/well into black poly-D-lysine pre-coated 384-well plates (Corning, Catalog No. 356697). Expression of KIF5B-RET is induced with doxycycline at 1 μg/mL and cells are incubated at 37° C. overnight. Compounds are prepared in a threefold serial dilution in DMSO before further diluting 1:100 in media prior to the addition to the cells (0.1% final DMSO concentration). Compound treatment is performed for 1 hr at 37° C. followed by fixation of cells with 4% formaldehyde for 20 min at RT and cell permeabilisation with ice-cold MeOH for 10 min at RT. Cells are incubated with Intercept® blocking buffer (Li—COR, Catalogue No. 927-70010) for 1 hr at RT. Incubation with primary antibodies against human phospho-RET (Y1062) (R&D, Catalogue No. AF5009, 1/250 dilution) and human glyceraldehyde-3-phosphate dehydrogenase (clone 6C5, Merck, Catalog No. MAB374, 1/1000 dilution) are performed overnight at 4° C. Incubation with secondary antibodies IRDye® 800CW goat anti-rabbit IgG (Li—COR, Catalogue No. 926-32211, 1/1000 dilution) and IRDye® 680CW goat anti-mouse IgG (Li—COR, Catalogue No. 926-68070, 1/1000 dilution) are performed for 1 hr at RT. All antibody dilutions are done in Intercept® blocking buffer containing 0.05% Tween20. After washing cells with PBS-T (Cell Signaling technology, Catalogue No. 9809), the images are acquired on a Li—COR Odyssey LCx at 700 and 800 nm. Percent of DMSO control is calculated with 100% signal referring to control conditions containing no compound (0.4% DMSO only) and 0% signal represented by conditions containing control compound. The % of DMSO control values are fit to a 4 parameter logistic curve, and the determined EC50 value is defined as the estimated concentration of inhibitor at the inflexion point of the fitted curve.

[2] = target: T2, KIF5B-RET mutant form V804M in HEK293 cells (Homo sapiens, UniProt P07949, V804M); test: RET cell assay (In-Cell Western, phospho-RET Y1062), V804M; format: cell-based; details: HEK293, doxycycline-induced KIF5B-RET V804M, 1 hr compound treatment; read-out: EC50, inhibition of intracellular autophosphorylation of RET at tyrosine 1062, V804M cells
T2 construct: expressed in transfected cells; host or cells: HEK293; the other entry of the earlier key: KIF5B (P33176, Kinesin-1 heavy chain)
T2 sequence (P07949 713-1063 V804M limits assumed): T1 sequence (P07949 713-1063 G810S limits assumed) with V92M, S98G
Procedure: as §1

| Structure (SMILES) | EC50 [1] [nM] | EC50 [2] [nM] |
| --- | --- | --- |
| CCC(C)(C)c1cc(NC(=O)C(C)c2ccc(-c3nn(C(C)C)c(N)c3C(N)=O)nc2)no1 (single isomer, unassigned; isomer 2) [Example 66, 5-Amino-1-isopropyl-3-[5-(1-[[5-(2-methylbutan-2-yl)-1,2-oxazol-3-yl]carbamoyl]ethyl)pyridin-2-yl]pyrazole-4-carboxamide, Isomer 2] | < 100 | < 100 |
| CC(C(=O)Nc1cc(C(C)(C)C(C)(F)F)on1)c1ccc(-c2nn(C(C)C)c(N)c2C(N)=O)nc1 (single isomer, unassigned; isomer 2) [Example 70, 5-Amino-3-[5-(1-[[5-(3,3-difluoro-2-methylbutan-2-yl)-1,2-oxazol-3-yl]carbamoyl]ethyl)pyridin-2-yl]-1-isopropylpyrazole-4-carboxamide, Isomer 2] | < 100 | < 100 |
| CC(C(=O)Nc1cc(C(C)(C)CC(F)(F)F)on1)c1ccc(-c2nn(C(C)C)c(N)c2C(N)=O)nc1 (single isomer, unassigned; isomer 2) [Example 68, 5-Amino-1-isopropyl-3-(5-(1-oxo-1-((5-(4,4,4-trifluoro-2-methylbutan-2-yl)isoxazol-3-yl)amino)propan-2-yl)pyridin-2-yl)-1H-pyrazole-4-carboxamide, Isomer 2] | < 100 | < 100 |
| CC(C(=O)Nc1cc(-c2ccc(Cl)cc2Cl)no1)c1ccc(-c2nn(C(C)C)c(N)c2C(N)=O)cn1 (single isomer, unassigned; isomer 2) [Example 94, 5-Amino-1-isopropyl-3-[6-[2-[[3-(2,4-dichlorophenyl)isoxazol-5-yl]amino]-1-methyl-2-oxo-ethyl]-3-pyridyl]pyrazole-4-carboxamide, Isomer 2] | < 100 | < 100 |

Continued, values first:

| EC50 [1] [nM] | EC50 [2] [nM] | Structure (SMILES) |
| --- | --- | --- |
| < 100 | < 100 | CCC(C)(C)c1cc(NC(=O)C(C)c2ccc(-c3nn(C(C)C)c(N)c3C(N)=O)cc2)no1 (single isomer, unassigned; isomer 2) [Example 52, 5-Amino-1-isopropyl-3-[4-(1-[[5-(2-methylbutan-2-yl)-1,2-oxazol-3-yl]carbamoyl]ethyl)phenyl]pyrazole-4-carboxamide, Isomer 2] |
| < 100 | < 100 | CCC(C)(C)c1cc(NC(=O)C(C)c2ccc(-c3nn(C(C)C)c(N)c3C(N)=O)cc2)on1 (single isomer, unassigned; isomer 1) [Example 15, 5-Amino-1-isopropyl-3-[4-(1-[[3-(2-methylbutan-2-yl)-1,2-oxazol-5-yl]carbamoyl]ethyl)phenyl]pyrazole-4-carboxamide, Isomer 1] |
| < 100 | < 100 | CC(C(=O)Nc1cc(C2CC(C)(C)C2)no1)c1ccc(-c2nn(C(C)C)c(N)c2C(N)=O)cc1 (single isomer, unassigned; isomer 1) [Example 98, 5-Amino-3-[4-[2-[[3-(3,3-dimethylcyclobutyl)isoxazol-5-yl]amino]-1-methyl-2-oxo-ethyl]phenyl]-1-isopropyl-pyrazole-4-carboxamide, Isomer 1] |
| < 100 | < 100 | CC(C(=O)Nc1cc(CC(C)(C)C)no1)c1ccc(-c2nn(C(C)C)c(N)c2C(N)=O)cc1 (single isomer, unassigned; isomer 1) [Example 1, 5-Amino-3-[4-(1-[[3-(2,2-dimethylpropyl)-1,2-oxazol-5-yl]carbamoyl]ethyl)phenyl]-1-isopropylpyrazole-4-carboxamide, Isomer 1] |
